Data published in article PMC12238723, “Phase I Clinical Trial of CVL218, a Novel PARP1/2 Inhibitor, in Patients with Advanced Solid Tumors” (MedComm, 2025).

System: patients with advanced solid tumors
Test: Dose-limiting toxicity, MTD and recommended dose
Type: in vivo
Protocol: CVL218 was administered orally, and this dose‐escalation trial included nine dose levels: 100 mg QD (50 mg BID), 200 mg QD (100 mg BID), 400 mg QD (200 mg BID), 700 mg QD (350 mg BID), 1000 mg QD (500 mg BID), 1200 mg QD (600 mg BID), 1400 mg QD (700 mg BID), 1700 mg QD (850 mg BID), and 2000 mg QD (1000 mg BID). Patients enrolled in the study received a single oral dose on the first day, followed by continuous multiple dosing (twice a day taking 12 h apart) after 72 h, with the treatment cycle lasting 4 weeks. The period during which patients received a single dose is designated as cycle 0 (C0), lasting 72 h. After this period, patients begin multiple dosing, referred to as cycle 1 (C1). An initial accelerated titration design was employed for the three lowest dose groups, and the “3+3” design was applied starting with the 300 mg BID cohort.
The primary objectives were to assess safety and tolerability as well as to determine the MTD, DLT, and dose recommended for further study. DLT was defined as any of the following events occurring during cycle 0 (including 72 h wash‐out period after a single dose) and cycle 1 per Common Terminology Criteria for Adverse Events (CTCAE) version 5.0: grade 4 anemia; grade 4 neutropenia; grade 3 neutropenia with fever ≥38.5°C; grade 4 thrombocytopenia; grade 3 thrombocytopenia associated with bleeding; grade ≥2 neurotoxicity; any other grade ≥3 nonhematological toxicities (excluding alopecia). The secondary objectives were to assess the PK and preliminary efficacy of CVL218.

CNCc1ccc(-c2cc3cc(F)cc(C(N)=O)c3o2)cc1.Cl [CVL218]
0 n (%): Any DLT (50 mg BID (N = 1)) | DLT: Increased creatinine (50 mg BID (N = 1)) | DLT: Renal failure (50 mg BID (N = 1)) | Any DLT (100 mg BID (N = 1)) | DLT: Increased creatinine (100 mg BID (N = 1)) | DLT: Renal failure (100 mg BID (N = 1)) | Any DLT (200 mg BID (N = 1)) | DLT: Increased creatinine (200 mg BID (N = 1)) | DLT: Renal failure (200 mg BID (N = 1)) | Any DLT (350 mg BID (N = 4)) | DLT: Increased creatinine (350 mg BID (N = 4)) | DLT: Renal failure (350 mg BID (N = 4)) | Any DLT (500 mg BID (N = 4)) | DLT: Increased creatinine (500 mg BID (N = 4)) | DLT: Renal failure (500 mg BID (N = 4)) | Any DLT (600mg BID (N=4)) | DLT: Increased creatinine (600mg BID (N=4)) | DLT: Renal failure (600mg BID (N=4)) | DLT: Increased creatinine (700 mg BID (N = 6)) | DLT: Renal failure (850mg BID (N=5))
1 (3.8) n (%): DLT: Renal failure (Overall (N=26))
2 (7.7) n (%): DLT: Increased creatinine (Overall (N=26))
3 (11.5) n (%): Any DLT (Overall (N=26))
1 (16.7) n (%): Any DLT (700 mg BID (N = 6)) | DLT: Renal failure (700 mg BID (N = 6))
2 (40.0) n (%): Any DLT (850mg BID (N=5)) | DLT: Increased creatinine (850mg BID (N=5))
700 mg BID: recommended dose for further study (oral) | maximum tolerated dose (MTD) (oral, patients with advanced solid tumors)
